Laboratory results taken from the supplement of paper PMC3493320.
pIC50: −log10 of the molar value.

Test system: NCI-H295R
Assay: IC50 (antiproliferative, ATP content)
Conditions: 48 h
Procedure, shortened: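 In 1536-well plates, 1500 adrenocortical carcinoma cells per well were grown overnight in serum-free, ITS-supplemented DMEM before compounds were pin-transferred at 8 final concentrations (0.6 nM to 46 µM). After 48 h at 37 °C and 5% CO2, CellTiter-Glo luminescence was read following 20 min at room temperature and normalised to vehicle and positive-control wells. IC50 values came from logistic curve fits, with compounds lacking any concentration response listed as above the top dose.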

| SMILES | pIC50 |
| --- | --- |
| COC1CC(=C(c2cccs2)c2cccs2)C[N+](C)(C)C1.[Br-] (centres undefined) | < 4.34 |
| CC(=O)OCC1=C(C(=O)O)N2C(=O)[C@@H](N)[C@H]2SC1 | < 4.34 |
| O=P(CC(N2C[C@H]([C@H]3CCCCC3)C[C@H]2[C@@](O)=O)=O)(OC(OC(CC)=O)C(C)C)CCCCC1=CC=CC=C1 (some centres undefined) | < 4.34 |
| COC(C)(C)CCCC(C)C/C=C/C(C)=C/C(=O)OC(C)C (centres undefined) | < 4.34 |
| CCN(CCCCOC(=O)c1ccc(OC)c(OC)c1)C(C)Cc1ccc(OC)cc1.Cl (centres undefined) | < 4.34 |
| Cc1cc(=O)n(-c2ccccc2)n1C | < 4.34 |
| CCC(C)(S(=O)(=O)CC)S(=O)(=O)CC | < 4.34 |
| O=C(O[C@@H]2C[C@H](CC3)[N@@+](C)(C)[C@H]3C2)C(CO)C1=CC=CC=C1.[Br-] (some centres undefined) | < 4.34 |
| O=C(O)CCNC(=O)c1ccc(/N=N/c2ccc(O)c(C(=O)O)c2)cc1 | < 4.34 |
| C[N+](C)(C)CCOC(=O)CCC(=O)OCC[N+](C)(C)C.[Cl-].[Cl-] | < 4.34 |
| CC[C@H]1OC(=O)[C@H](C)[C@@H](O[C@H]2C[C@@](C)(OC)[C@@H](O)[C@H](C)O2)[C@H](C)[C@@H](O[C@@H]2O[C@H](C)C[C@H](N(C)C)[C@H]2O)[C@](C)(O)C[C@@H](C)C(=O)[C@H](C)[C@@H](O)[C@]1(C)O | < 4.34 |
| CCN(CC)CCOC[C@H]1O[C@@H](O)[C@H](OCCN(CC)CC)[C@@H](O)[C@@H]1O | < 4.34 |
| C[Si](C)(C)O[Si](C)(C)C | < 4.34 |
| Cc1cc(C)nc(NS(=O)(=O)c2ccc(N)cc2)n1 | < 4.34 |
| CCN(CC)C(=O)N1CCN(C)CC1.O=C(O)CC(O)(CC(=O)O)C(=O)O | < 4.34 |
| NC(=O)OCCCc1ccccc1 | < 4.34 |
| C[C@H](N)[C@H](O)c1ccc(O)c(O)c1 | < 4.34 |
| CC(=O)c1ccc2c(c1)N(CCCN1CCC(CCO)CC1)c1ccccc1S2 | < 4.34 |
| Nc1nc(=O)[nH]cc1F | < 4.34 |
| CC(C)CCCC(C)NC(C)C (centres undefined) | < 4.34 |
| CC(=O)Nc1ccc(C=NNC(N)=S)cc1 | < 4.34 |
| NCCNCCNCCN | < 4.34 |

| SMILES | pIC50 |
| --- | --- |
| ClC1C(Cl)C(Cl)C(Cl)C(Cl)C1Cl (centres undefined) | < 4.34 |
| CN(C)CCc1c[nH]c2ccc(C[C@H]3COC(=O)N3)cc12 | < 4.34 |
| Nc1nccs1 | < 4.34 |
| CCN(CC)CCNC(=O)c1ccc(NC(C)=O)cc1.Cl | < 4.34 |
| CCCN(CCc1cccs1)[C@H]1CCc2c(O)cccc2C1 | < 4.34 |
| Cc1cnc(NC(=O)C2=C(O)c3ccccc3S(=O)(=O)N2C)s1 | < 4.34 |
| O=[N+]([O-])O[C@@H]1CO[C@H]2[C@@H]1OC[C@@H]2O | < 4.34 |
| Cl.OC(CCN1CCCCC1)(c1ccccc1)C1CC2C=CC1C2 (centres undefined) | < 4.34 |
| O=C1NC(=O)[C@H]2[C@@H]1[C@@H]1C=C[C@H]2C1 | < 4.34 |
| COc1ccccc1O | < 4.34 |
| [O-]S(=O)(=O)OC.C[N+]1(C)CC\C(CC1)=C(\c2ccccc2)c3ccccc3 | < 4.34 |
| O=C([O-])CCC1=C(C)C/3=N\C1=C/C2=C(CCC([O-])=O)C(C)=C(/C=C(C(C=C)=C4C)\N=C4/C=C(C(C=C)=C5C)\N\C5=C3)N2.[Na+].[Na+] | < 4.34 |
| O=C(NCN1CCOCC1)c1cnccn1 | < 4.34 |
| CC(C)NCC(O)COc1ccc(CCOCC2CC2)cc1 (centres undefined) | < 4.34 |
| O.O=C(/C=C/C(O)c1ccc(Cl)cc1)[O][Na] (centres undefined) | < 4.34 |
| COc1ccc(-c2cc(=O)c3c(O)cc(O[C@@H]4O[C@H](CO[C@@H]5O[C@@H](C)[C@H](O)[C@@H](O)[C@H]5O)[C@@H](O)[C@H](O)[C@H]4O)cc3o2)cc1O | < 4.34 |
| CCOC(=O)c1cnc2cc(OCC(C)C)c(OCC(C)C)cc2c1O | < 4.34 |
| CCCCC(CC)COS(=O)(=O)[O-].[Na+] (centres undefined) | < 4.34 |
| C[C@]12CC[C@@H]3c4ccc(O)cc4CC[C@H]3[C@@H]1C[C@@H](O)[C@H]2O | < 4.34 |
| [S]=[Sb](=[S])[S][Sb](=[S])=[S] | < 4.34 |
| O=c1cc[nH]c(=O)[nH]1 | < 4.34 |
| C#Cc1cccc(Nc2ncnc3cc(OCCOC)c(OCCOC)cc23)c1 | < 4.34 |
